The text below walks through data of patent publication US20250041377A1, “PHARMACEUTICAL USE” (ENLITISA (SHANGHAI) PHARMACEUTICAL CO., LTD., priority 2018, published 2025).

Each structure is given as a SMILES string. Structures can show the parent of a compound that is named as a salt.

Test [1] deals with bleomycin-induced pulmonary fibrosis. In words: Idiopathic pulmonary fibrosis (IPF) model. The class given is in vivo, Sprague Dawley rats. Conditions: Day 29. On the procedure:
Experimental animals and grouping: 40 adult male Sprague Dawley rats, after 7 days of adaptive feeding, were divided into 4 groups: sham-operation group (Sham), IPF model group (no treatment; Model), test group (Compound B) and positive control group (Positive Control).
The test were administered Compound B, at a dose of 130 μg/rat, which was introduced by aerosolized inhalation. Oral administration of pirfenidone (Etuary®, Beijing Continent Pharmaceutical Co., Ltd., Beijing, China) as a 120 mg/kg single-bolus dose served as the positive control.
A pulmonary fibrosis model was established by intratracheal instillation of bleomycin. The rats were anaesthetised and placed on an operating table in the supine position, to expose the trachea. Bleomycin (5 mg/kg) saline solution was injected into the trachea through the gap between the tracheal cartilage rings. The sham-operation group were given an equal volume of normal saline. Shortly after administration, the rats were lifted vertically and were rotated, in order to evenly disperse the drug. Once the rats had recovered, after approximately 5 days, they were administrated the different drugs according to the plan for 28 days, consecutively.
The exhaust volume of the atomizing device was 0.15 mL per minute. The inhalation time for each rat was 1 minute.
At Day 29 following drug administration, rats were anesthetized by i.p. injection of chloral hydrate. After orbital blood collection, the rats were sacrificed. The thoracic cavity was quickly opened and the lung was collected for further analysis. The lung wet weight was measured, and the lung coefficient was calculated (lung wet weight/rat weight×1000). The tissue was stored in refrigerator at −80° C. for further use.
A piece of lung tissue was accurately weighed, and 9 times the weight of saline was added. Then, the tissue was homogenized and centrifuged for 10 minutes at 3000 rpm. The homogenate was used to detect the expression of the transformation growth factor (TGF-β1), tumor necrosis factor-α (TNF-α) and alpha-smooth muscle actin (α-SMA). Standard ELISA methods were used for the detection. The contents of malonaldehyde (MDA) and the activity of superoxide dismutase (SOD) in lung tissue were also detected.

The subject of test [2] is ammonia induced cough. In words: Antitussive experiment, ammonia induced cough method. In kind it is in vivo, ICR mice. On the procedure: 36 ICR mice were randomly divided into 3 groups according to their body weight, labelled a CMC-Na (Negative) control group, a dextromethorphan hydrobromide (Positive) control group and a Compound B (B) group. Each group contained 12 mice, with 6 males and 6 females in each.
Compound B was administered via atomization inhalation using a YLS-8A Multifunctional cough and sputum inducing device (Jinan Yiyan Science and Technology Co., Ltd.) (0.15 ml/min) for 1 minute, once daily for 5 days. And the positive control drug was administered once daily by intragastric administration at 10 mg/kg for 5 days.
The mice were placed in an inverted beaker 1, 2, and 4 hours after the last drug administration. 1 mL of aqueous ammonia (25.0 to 28.0%) was placed on top of a boiling water bath and was evaporated into the beaker.
The time for mice to receive ammonia exposure was determined by a method characterized by analyzing data immediately after one test or a batch of tests. The results of the previous analysis determined how to conduct the next test or batch of tests.
The difference between the logarithmic value of two adjacent time periods was 0.1.
The number of coughs within 1 minute was detected using a stethoscope. If a mouse coughed three or more times over one minute, this was labelled as called ‘cough’, and less than three times in one minute was labelled ‘cough free’.
The EDT50 was defined as the ammonia stimulating time at which half mice developed a “cough”, calculated by the equation: […]
(c equals the sum of r and x, r is the number of animals in each stimulating time group, x is the logarithm of stimulation time and n was the number of animals in each group). lg is a base 10 logarithmic value.
In Table 15, R is the EDT50 in treatment group divided by the EDT50 in the Control group expressed as a percentage.

Where [3] appears, read: lung tissue homogenate, Compound B 130 μg/rat aerosolized inhalation, pirfenidone gavage, 28 days.

On to `Cc1ccc(=O)n(-c2ccccc2)c1` [Positive Control, pirfenidone, reference compound], for which, in test [1] (setting [3]), the TGF-β1 was 0.41 ± 0.03 ng/mg protein, the TNF-α is 208.41 ± 17.73 pg/mg protein and the α-SMA is on record as 10.98 ± 0.93 pg/mg protein. In test [1] (lung tissue), this molecule returned an MDA of 0.24 ± 0.05 U/mg protein and an SOD of 48.59 ± 2.36 U/mg protein.
For the molecule `COc1ccc2c(c1)[C@]13CCCC[C@@H]1[C@H](C2)N(C)CC3` [Positive, dextromethorphan hydrobromide, reference compound], the R in test [2] (1 hour after admin., EDT50 in treatment group divided by EDT50 in Control group) is listed as 241.7%; in test [2] (2 hours after admin., EDT50 treatment/Control), 207.3%; in test [2] (4 hours after admin., EDT50 treatment/Control), 184.8%. Moreover, the EDT50 in test [2] (1 hour after last administration, B 195 μg/mouse atomization inhalation, Positive 10 mg/kg intragastric, once daily 5 days) was 50.1 s; in test [2] (2 hours after last administration), 44.7 s; in test [2] (4 hours after last administration), 41.4 s.
